Measurements reported in patent US20090117598A1, “Method for identifying compounds that affect a transport of a protein through a membrane trafficking pathway” (priority 2004, published 2009).

What was measured:
Assay type in all cases: cell-based
Hela cells = experiment: fluid phase endocytosis assay (BODIPY-FL dextran internalization); conditions: for number of endosomes relative to the control: BODIPY-FL dextran 20 min at 37° C., FIG. 3b; for integrated fluorescence intensity per cell relative to the control: data not shown
Description: For the fluid phase endocytosis assay, Hela cells in 96 well plates were washed and incubated for 120 min with the compounds in serum free buffered medium under tissue culture conditions. The medium was then replaced with serum-free buffered medium supplemented with 1 mg/ml BODIPY-FL-Dextran and 10 μM Syto60. Cells were incubated for 20 min at 37° C., then placed on a cooled block and washed extensively with ice cold phosphate buffered saline 10% w/v bovine serum albumin (Serva; Heidelberg, Germany). Plates were imaged by the Opera using 488/633 nm excitation, 3 μm focus height above the coverslip, 1000 ms or 500 ms exposure and 510 nm (50 nm bandpass) or 680 (50 nm bandpass) filters, respectively.
Fluid phase endocytosis was measured using custom written scripts in Metamorph. Cells were identified in the 633 nm excitation SYTO60 image, the nuclei segmented and cells counted. A mask was generated from this image and used to identify cells in overlay of the 488 nm BODIPY-FL dextran image, to create regions of interest around the cell borders and excise them from the image. Background was deducted from the processed BODIPY-FL dextran image that was thresholded to identify endosomes as individual regions of interest. Image pairs with less than 300 cells per field of view were rejected.
A fluid phase endocytosis assay measured the internalization of green fluorescent 40 kDa BODIPY-FI dextran. Dextrans are ideal endocytotic markers for labelling endosomes and macropinosomes. In this assay, endosomes labelled with fluorescent dextran by internalization were readily identified with the Opera instrument (FIG. 2b). Dextran internalization satisfied all the classical prerequisites for an internalization assay—it was temperature dependent, arrested at 4° C. (FIG. 2a), and required a source of energy in the medium. Endocytosis was quantified by analysis of paired images of cells labelled with green dextran and the SYTO60 nuclear counter stain. The analysis was validated on cells that had internalized green fluorescent dextran for 20 min at 37° C. or at 4° C. (FIG. 2c).
To identify compounds affecting GPCR internalization and not affecting housekeeping endocytosis, the kinase and phosphatase inhibitor collection was screened against the fluid phase endocytosis assay (FIG. 3b). The effect of the compounds was evaluated. Four compounds (staurosporine, tyrphostin 9, AG-879, GF 109203×) were identified that reduced the number of endosomes (FIG. 3b) and the integrated intensity per cell relative to the control (data not shown).

[1] = test system: ETAR internalization and fluid phase endocytosis; experiment: Overlap of the ETAR internalization and the fluid phase endocytosis screen; conditions: FIG. 3b
Source text: Overlap of the ETAR internalization and the fluid phase endocytosis screen was used to generate differential information from the two assays.

[2] = test system: human endothelin A receptor; experiment: ETAR (GPCR) internalization assay, ETAR-EGFP in stably transfected HEK 293 cells; conditions: for receptor trafficking morphology observed (visual screen of primary hits): stimulation with 40 nM endothelin-1, FIG. 4
Source text: A human endothelin A receptor cDNA clone in pCDNA3.1(−) (Invitrogen Carlsbad, USA) was excised via KpnI/HindIII and fused to the egfp coding sequence of the pEGFP-N1 vector (Clontech, Palo Alto USA) by splice overlap PCR using specific primers. The amplified fragment was digested via KpnI/EcoRV and ligated in the pCDNA3.1(−) vector digested with the same combination of restriction enzymes. The resulting pETAR-EGFP DNA was cloned, checked by sequencing and used for transfection of HEK 293 cells using standard protocols. A recombinant clone was obtained through several cycles of genetecin selection and limiting dilutions. For screening, cells were passed onto coverslip bottomed 96 well plates (Greiner; Longwood, USA, or Whatman; Brentford, UK) at a density of 4·10^3 cells/well for Hela and 2·10^4 cells/well for HEK293 cells, 48 hours in advance.
For the GPCR internalization assay, recombinant HEK cells grown were plated in 96 well plates and incubated overnight in DMEM/F12 containing 10% FBS. The plates were washed and the cells incubated for 120 min under tissue culture conditions with the compounds in 1% serum medium. The compound solutions were then exchanged for a solution with the same compound concentration and supplemented with 40 nM endothelin-1 and 10 μM Syto60. Cells were incubated for 120 min at 22° C. Plates were imaged by the Opera using 488/633 nm excitation, 3 μm focus height above the coverslip, 250 ms or 500 ms exposure and 510 nm (50 nm bandpass) or 680 (50 nm bandpass) filters, respectively. Typically, 5 image pairs (at 488 and 633 nm excitation) per well were acquired.
GPCR translocation was evaluated using scripts within the Acapella script player software environment of the Opera. The script measured translocation of the ETAR-EGFP fusion protein from the plasma membrane into recycling endosomes. Cells were first located in the 633 nm excitation SYTO60 image. Red fluorescent nuclei were identified by thresholding and edge seeking and then segmented to create a mask. The number of cells was counted and the nuclei mask used to generate a new cytoplasmic mask. Subsequently, each cell was individually segmented and cells with at least one bright recycling endosome were identified. Image analysis was performed on- and offline and analyses were rejected if the cell count was beneath 100 per field of view.
The endothelin A GPCR internalization screen was carried out using a stably transfected HEK 293 cell line expressing a fusion protein between the ETAR and a c-terminal copy of the enhanced green fluorescent protein. […] This internalization event was used as the basis for measuring trafficking of the receptor by image analysis. Serum deprived cells were stimulated with endothelin-1 at several concentrations and simultaneously counterstained with DRAQ5 or SYTO60, which are long wavelength excitable DNA and nucleic acid stains, respectively. The cells were stimulated for 120 min at 22-23° C., then imaged on the Opera automated confocal imaging reader. Images of the GFP and red counterstain fluorescence were automatically recorded and used to determine the number of cells where internalization of the receptor had occurred.
Cells were pre-treated with 10 μM compound before stimulation with 40 nM endothelin-1 to ensure a uniform and robust internalization response for the receptor.

[3] = secondary screen 0.1 μM to 50 μM, FIG. 5

Row | SMILES | number of endosomes relative to the control (Hela cells) | integrated fluorescence intensity per cell relative to the control (Hela cells; BODIPY-FL dextran) | comparison of the responses in the ETAR internalization and fluid phase endocytosis assays [1] | receptor trafficking morphology observed (visual screen of primary hits) ([2]; 10 μM compound) | also measured
1 | CC(C)(C)c1cc(/C=C(\C#N)C(N)=S)cc(C(C)(C)C)c1O [AG-879] | reduced | reduced | – | – | –
2 | CN(C)CCCn1cc(C2=C(c3c[nH]c4ccccc34)C(=O)NC2=O)c2ccccc21 [GF 109203X] | reduced | reduced | congruent in both assays | – | –
3 | O=C1Nc2ccc(I)cc2/C1=C/c1cc(Br)c(O)c(Br)c1 [GW 5074] | – | – | large difference | – | hit classification in the primary screen ([2]; 10 μM compound, 40 nM endothelin-1, FIG. 3b): partial hit; concentration at which effect on GPCR internalization was seen (secondary screen) [2, 3]: 50 µM; effect on accumulation of the receptor in recycling endosomes ([2]; versus untreated endothelin-1 stimulated control cells, FIG. 4d): delayed accumulation of the receptor in the recycling endosomes
4 | O=S(=O)(NCCNC/C=C/c1ccc(Br)cc1)c1cccc2cnccc12 [H-89] | – | – | large difference | enhanced accumulation in the recycling endosome | –
5 | Cn1cc(C2=C(c3cn(CCCSC(=N)N)c4ccccc34)C(=O)NC2=O)c2ccccc21 [Ro 31-8220] | – | – | large difference | arrest of the receptor at the plasma membrane | –
6 | CC[C@H](C)[C@H](NC(=O)[C@H](CC(=O)O)NC(=O)[C@H](CC(C)C)NC(=O)[C@H](Cc1c[nH]cn1)NC(=O)[C@@H]1CSSC[C@H](N)C(=O)N[C@@H](CO)C(=O)N[C@H]2CSSC[C@H](NC(=O)[C@H](CCC(=O)O)NC(=O)[C@H](CCCCN)NC(=O)[C@H](CC(=O)O)NC(=O)[C@H](CCSC)NC(=O)[C@H](CC(C)C)NC(=O)[C@H](CO)NC(=O)[C@H](CO)NC2=O)C(=O)N[C@@H](C(C)C)C(=O)N[C@@H](Cc2ccc(O)cc2)C(=O)N[C@@H](Cc2ccccc2)C(=O)N1)C(=O)N[C@H](C(=O)N[C@@H](Cc1c[nH]c2ccccc12)C(=O)O)[C@@H](C)CC [endothelin-1] | – | – | – | – | ETAR localization after endothelin-1 stimulation [2]: internalization of the fluorescent ETAR into an intracellular peri-centriolar compartment; EC50 ([2]; read-out: EC50 of endothelin stimulation (ETAR-EGFP internalization)): 3.4 nM
7 | COC(=O)/C=C/c1cc(O)ccc1O [erbstatin analogue] | – | – | large difference | arrest of the receptor in small vesicular bodies | –
8 | O=c1c(-c2ccc(O)cc2)coc2cc(O)cc(O)c12 [genistein] | increased | significantly increased | – | – | –
9 | CN[C@@H]1C[C@H]2O[C@@](C)([C@@H]1OC)n1c3ccccc3c3c4c(c5c6ccccc6n2c5c31)C(=O)NC4 [staurosporine] | reduced | reduced | congruent in both assays | arrest of the receptor at the plasma membrane | endosomal pixel intensity (Hela cells; BODIPY-FL dextran): slightly increased; effective concentration for blocking GPCR internalization (secondary screen) [2, 3]: 100 nM
10 | CC(C)(C)c1cc(C=C(C#N)C#N)cc(C(C)(C)C)c1O [tyrphostin 9] | reduced | reduced | – | – | –
